Numbers after ± are expanded uncertainties.
Conditions: Liquid, Vibrating tube method

Row | mass density (288.15 K, 100 kPa) [kg/m3] | mass density (288.15 K, 5000 kPa) [kg/m3] | mass density (288.15 K, 10000 kPa) [kg/m3] | mass density (288.15 K, 20000 kPa) [kg/m3] | mass density (288.15 K, 30000 kPa) [kg/m3] | mass density (288.15 K, 40000 kPa) [kg/m3] | mass density (298.15 K, 100 kPa) [kg/m3] | mass density (298.15 K, 5000 kPa) [kg/m3] | mass density (298.15 K, 10000 kPa) [kg/m3] | mass density (298.15 K, 20000 kPa) [kg/m3] | mass density (298.15 K, 30000 kPa) [kg/m3] | mass density (298.15 K, 40000 kPa) [kg/m3] | mass density (308.15 K, 100 kPa) [kg/m3] | mass density (308.15 K, 5000 kPa) [kg/m3] | mass density (308.15 K, 10000 kPa) [kg/m3] | mass density (308.15 K, 20000 kPa) [kg/m3] | mass density (308.15 K, 30000 kPa) [kg/m3] | mass density (308.15 K, 40000 kPa) [kg/m3] | Compound
1 | 733.6 ± 0.3 | 737.2 ± 0.3 | 740.7 ± 0.4 | 747.2 ± 0.5 | 753.2 ± 0.5 | 758.9 ± 0.6 | 726 ± 0.3 | 730.2 ± 0.3 | 733.5 ± 0.4 | 740.3 ± 0.5 | 746.5 ± 0.5 | 752.2 ± 0.6 | 718.3 ± 0.3 | 722.4 ± 0.3 | 726.2 ± 0.4 | 733.4 ± 0.5 | 740 ± 0.5 | 745.9 ± 0.6 | CCCCCCCCCC [decane]
2 | 980.3 ± 0.2 | 984.5 ± 0.2 | 988.6 ± 0.2 | 996.3 ± 0.2 | 1003.6 ± 0.2 | 1010.5 ± 0.2 | 968.9 ± 0.3 | 973.8 ± 0.3 | 977.8 ± 0.2 | 986 ± 0.2 | 993.6 ± 0.2 | 1000.8 ± 0.2 | 957.7 ± 0.3 | 962.4 ± 0.3 | 967.1 ± 0.3 | 975.7 ± 0.3 | 983.8 ± 0.2 | 991.3 ± 0.2 | CCOC(=O)OCC [diethyl carbonate]
3 | 1076.5 ± 0.4 | 1080.6 ± 0.4 | 1084.8 ± 0.4 | 1092.8 ± 0.4 | 1100.3 ± 0.5 | 1107.5 ± 0.5 | 1062.9 ± 0.4 | 1068 ± 0.4 | 1072.1 ± 0.4 | 1080.5 ± 0.4 | 1088.5 ± 0.4 | 1095.9 ± 0.5 | 1049.4 ± 0.3 | 1054.6 ± 0.4 | 1059.4 ± 0.4 | 1068.3 ± 0.4 | 1076.7 ± 0.4 | 1084.5 ± 0.5 | COC(=O)OC [dimethyl carbonate]
4 | 706.6 ± 0.3 | 710.9 ± 0.4 | 714.7 ± 0.4 | 721.7 ± 0.5 | 728.1 ± 0.6 | 734.3 ± 0.7 | 698.6 ± 0.3 | 703.4 ± 0.4 | 707 ± 0.4 | 714.6 ± 0.5 | 721.4 ± 0.6 | 727.7 ± 0.7 | 690.5 ± 0.3 | 695 ± 0.4 | 699.4 ± 0.4 | 707.3 ± 0.5 | 714.5 ± 0.6 | 720.8 ± 0.7 | CCCCCCCC [octane]

From the NIST ThermoML archive (doi:10.1016/j.jct.2012.11.011)
